In brackets after ≈: the same amount, converted by molar mass. Where a SMILES comes first, the peptide text is derived from it. [ ]: non-standard residue; d: D form.
How the values were obtained:
[1] = test system: S. aureus; test: microbe, parasite or virus in culture; assay type: cell-based, Staphylococcus aureus
In short: (§1)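 MIC read-out = lowest peptide level with no bacterial proliferation. Strains diluted in MH medium to 2×10^6 CFU; peptide twofold serial dilutions in MH added 1:1 in microtiter wells.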

[2] = test system: MDRST 8007; test: Minimal inhibitory concentration (MIC), single agent; assay type: cell-based, Salmonella typhimurium; conditions: agent alone
In short: as §1

[3] = test system: MDRPA 2002; assay type: cell-based, Pseudomonas aeruginosa
In short: as §1

[4] = test system: B. subtilis; test: microbe, parasite or virus in culture; assay type: cell-based, Bacillus subtilis
In short: as §1

[5] = test system: S. typhimurium; test: microbe, parasite or virus in culture; assay type: cell-based, Salmonella typhimurium
In short: as §1

[6] = test system: E. coli; test: microbe, parasite or virus in culture; assay type: cell-based, Escherichia coli; conditions: 16 h
In short: as §1

[7] = test system: MDREC 1229; test: microbe, parasite or virus in culture; assay type: cell-based, Escherichia coli
In short: as §1

[8] = test system: multi-drug resistant bacteria; test: MIC, summary statements for multi-drug resistant bacteria; assay type: cell-based
Procedure: For the antibacterial activity, a minimal inhibitory concentration (MIC) of a peptide in which fungus bodies were not split in an MH medium with sufficient nutrients was measured.
Specifically, the strains described in the following [Table 2] were purchased and diluted with an MH medium such that the number of bacteria was 2×10^6 colony-forming units (CFUs), 100 μl of each of the diluted strains was aliquoted into a 96-well microtiter plate, and then 100 μl of a peptide solution diluted with the MH medium (solution diluted stepwise at 2: 1) was added to each well.

[9] = test system: A. baumannii; test: microbe, parasite or virus in culture; assay type: cell-based, Acinetobacter baumannii
In short: as §1

[10] = test system: MDRAB 12035; test: microbe, parasite or virus in culture; assay type: cell-based, Acinetobacter baumannii
In short: as §1

[11] = test system: MRSA 3114; assay type: cell-based, Staphylococcus aureus; conditions: 3114
In short: as §1

[12] = test system: MRSA 3126; assay type: cell-based, Staphylococcus aureus; conditions: 3126
In short: as §1

[13] = test system: E. coli; test: MIC of antibiotic during combined treatment with antimicrobial peptide; assay type: cell-based, Escherichia coli; conditions: for Antibiotic MIC, Erythromycin / Antibiotic MIC, Linezolid / Antibiotic MIC, Vancomycin: E. coli
In short: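 Antibiotic diluted in MH medium, dispensed per well with peptide; setup repeated with roles reversed; MIC read per combination.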

CC[C@H](C)[C@H](NC(=O)[C@H](CCCCN)NC(=O)[C@H](Cc1c[nH]c2ccccc12)NC(=O)[C@@H](N)CCCNC(=N)N)C(=O)N[C@@H](Cc1ccccc1)C(=O)N[C@@H](CCCCN)C(=O)N[C@@H](CCCCN)C(=O)N[C@H](C(=O)N[C@H](CC(C)C)C(=O)N[C@@H](CCCCN)C(=O)N[C@@H](CC(C)C)C(=O)N[C@@H](CC(C)C)C(=O)N[C@@H](Cc1c[nH]cn1)C(=O)N[C@@H](CCCCN)C(=O)N[C@@H](C)C(=O)N[C@@H](CCCCN)C(=O)N[C@@H](CCCCN)C(=O)N[C@@H](Cc1c[nH]c2ccccc12)C(N)=O)[C@@H](C)CC [PapMA-22, RWK IFK KIl KLL HKA KKW-NH2] (H-RWKIFKKI[dL]KLLHKAKKW-NH2; N-terminus assumed)
Minimal inhibitory concentration MIC [1]: >128 µg/mL | Minimal inhibitory concentration MIC [2]: 32 µg/mL (≈ 13.5 µM) | Minimal inhibitory concentration MIC [3]: 32 µg/mL (≈ 13.5 µM) | Minimal inhibitory concentration MIC [4]: >128 µg/mL | Minimal inhibitory concentration MIC [5]: 32 µg/mL (≈ 13.5 µM) | Minimal inhibitory concentration MIC [6]: 32 µg/mL (≈ 13.5 µM) | Minimal inhibitory concentration MIC [7]: 32 µg/mL (≈ 13.5 µM) | Peptide MIC, peptide alone [7]: 32 µg/mL | Antibacterial activity relative to PapMA-1 [8]: twice to four times higher | Minimal inhibitory concentration MIC [9]: 16 µg/mL (≈ 6.77 µM) | Peptide MIC, peptide alone [9]: 16 µg/mL | Antibacterial activity relative to PapMA-1 ([9]; A. baumannii and S. typhimurium): at least twice as high | Minimal inhibitory concentration MIC [10]: 32 µg/mL (≈ 13.5 µM) | Peptide MIC, peptide alone [10]: 32 µg/mL | Minimal inhibitory concentration MIC [11]: >128 µg/mL | Minimal inhibitory concentration MIC [12]: >128 µg/mL | Synergistic effect of antibacterial activity with existing antibiotics compared with PapMA-1 ([13]; E. coli and MDREC1229): level similar to that of the PapMA-1 peptide | Antibiotic MIC, Erythromycin ([13]; erythromycin combined with peptide at 1 μg/ml): 128 µg/mL | Antibiotic MIC, Erythromycin ([13]; erythromycin combined with peptide at 2 μg/ml): 32 µg/mL | Antibiotic MIC, Erythromycin ([13]; erythromycin combined with peptide at 4 μg/ml): 16 µg/mL | Antibiotic MIC, Erythromycin ([13]; erythromycin combined with peptide at 6 μg/ml): 8 µg/mL | Antibiotic MIC, Erythromycin ([13]; erythromycin combined with peptide at 8 μg/ml): 2 µg/mL | Antibiotic MIC, Erythromycin ([13]; erythromycin combined with peptide at 16 μg/ml): 1 µg/mL | Antibiotic MIC, Erythromycin ([13]; erythromycin combined with peptide at 32 μg/ml): 0 µg/mL | Antibiotic MIC, Erythromycin ([13]; erythromycin combined with peptide at 64 μg/ml): 0 µg/mL | Antibiotic MIC, Linezolid ([13]; linezolid combined with peptide at 1 μg/ml): >128 µg/mL | Antibiotic MIC, Linezolid ([13]; linezolid combined with peptide at 2 μg/ml): 128 µg/mL | Antibiotic MIC, Linezolid ([13]; linezolid combined with peptide at 4 μg/ml): 64 µg/mL | Antibiotic MIC, Linezolid ([13]; linezolid combined with peptide at 6 μg/ml): 32 µg/mL | Antibiotic MIC, Linezolid ([13]; linezolid combined with peptide at 8 μg/ml): 32 µg/mL | Antibiotic MIC, Linezolid ([13]; linezolid combined with peptide at 16 μg/ml): 16 µg/mL | Antibiotic MIC, Linezolid ([13]; linezolid combined with peptide at 32 μg/ml): 0 µg/mL | Antibiotic MIC, Linezolid ([13]; linezolid combined with peptide at 64 μg/ml): 0 µg/mL | Antibiotic MIC, Vancomycin ([13]; vancomycin combined with peptide at 1 μg/ml): >128 µg/mL | Antibiotic MIC, Vancomycin ([13]; vancomycin combined with peptide at 2 μg/ml): >128 µg/mL | Antibiotic MIC, Vancomycin ([13]; vancomycin combined with peptide at 4 μg/ml): 128 µg/mL | Antibiotic MIC, Vancomycin ([13]; vancomycin combined with peptide at 6 μg/ml): 64 µg/mL | Antibiotic MIC, Vancomycin ([13]; vancomycin combined with peptide at 8 μg/ml): 32 µg/mL | Antibiotic MIC, Vancomycin ([13]; vancomycin combined with peptide at 16 μg/ml): 16 µg/mL | Antibiotic MIC, Vancomycin ([13]; vancomycin combined with peptide at 32 μg/ml): 0 µg/mL | Antibiotic MIC, Vancomycin ([13]; vancomycin combined with peptide at 64 μg/ml): 0 µg/mL
